Laboratory results as given in patent publication US20230120211A1, “HDAC Degrader” (University of Leicester, priority 2020, published 2023).

Experiments:
[1] = test system: H3K56ac; assay: H3K56ac levels in E14 mouse embryonic stem cells, quantitative western blot; assay type: cell-based; details: E14 mES cells, 24 h; CI-994 40 μM, Panobinostat 30 nM
Description: The inventors proceeded to assess their compounds effects on HDAC activity in cells.
To examine the ability of PROTACs 1-4 to reduce HDAC1, 2 and 3 activity in cells they began by measuring H3K56ac using quantitative western blotting (see FIG. 3B).
(§1) HCT116 or mES cells were treated 24 hours after seeding. 24 hours post treatment, cells were harvested, lysed in lysis buffer (50 mM Tris-HCl, 150 mM NaCl, 0.5% NP-40, 0.5% Triton X-100) with protease inhibitor (Sigma, P8340), then incubated on ice for 30 minutes, before being centrifuged (18,000 ref, 15 minutes, 4° C.). The supernatant was collected, and protein concentrations quantified via Bradford Assay using Protein Assay Dye Reagent Concentrate (BIO-RAD). For histone extraction, an equal volume of 0.4 N H2SO4 was added to the pellets and the extracts placed at 4° C. overnight. Following overnight incubation, the tubes were centrifuged (18,000 ref, 15 minutes, 4° C.) and then the supernatant (histone extract) collected.
(§2) Western blots were run on NuPAGE™ 4-12% Bis-Tris gels with 20-30 μg of protein or 10 μL of acid-extracted histone loaded per lane, using NuPAGE™ LDS Sample Buffer (4×). PageRuler™ Plus Prestained Ladder was used for size standards. After gel electrophoresis at 140V for 75-90 minutes the separated proteins were transferred onto nitrocellulose membrane at 30V for 60 minutes. The membranes were probed with primary antibodies (listed below) for 60-90 minutes. Blots were developed with complimentary IRDye conjugated secondary antibodies and the bands visualised using the Odyssey Infrared Imaging System. Image processing and band intensity quantification was performed using Image Studio Lite.

[2] = molecular target: T1, HDAC1 (Homo sapiens, UniProt Q13547); assay: HDAC1 degradation in HCT116 cells, quantitative western blot; assay type: cell-based; details: for Dmax: HCT-116, 24 h, HCT116, screened at 0.1, 1 and 10 μM, maximum degradation irrespective of concentration, read-out: HDAC1 Degrader (% Degradation)
T1 construct: endogenous in cells; host or cells: HCT116
Description: (§3) The compounds were screened at 0.1 μM, 1 μM and 10 μM in a HCT116 cell line. The maximum degradation observed irrespective of the concertation was recorded. The screening of the new compounds was done in 6-well plates, 5 mL media, with 400,000 cells per well to increase throughput.
as §1
as §2, with “PageRuler™” for “Western blots were run on NuPAGE™ 4-12% Bis-Tris gels with 20-30 μg of protein or 10 μL of acid-extracted histone loaded per lane, using NuPAGE™ LDS Sample Buffer (4×). PageRuler™”

[3] = molecular target: T2, HDAC2 (Homo sapiens, UniProt Q92769); assay: HDAC2 degradation in HCT116 cells, quantitative western blot; assay type: cell-based; details: for HDAC 2 Degrader (% Degradation) / Dmax: HCT116, screened at 0.1, 1 and 10 μM, maximum degradation irrespective of concentration; for Dmax: HCT-116, 24 h, read-out: HDAC 2 Degrader (% Degradation)
T2 construct: endogenous in cells; host or cells: HCT116
Description: as §3, §1
as §2, with “PageRuler™” for “Western blots were run on NuPAGE™ 4-12% Bis-Tris gels with 20-30 μg of protein or 10 μL of acid-extracted histone loaded per lane, using NuPAGE™ LDS Sample Buffer (4×). PageRuler™”

[4] = molecular target: CoREST (Homo sapiens, UniProt Q13547); assay: HDAC inhibition assay, CoREST complex (Table 1, run under different conditions); assay type: biochemical; details: Table 1 conditions (differ from FIG. 3)
Description: Inhibition tests against LSD1-HDAC-CoREST complex were performed using a two-enzyme fluorescence-based HDAC assay. The inhibitor/PROTACs were dissolved at 50 mM in DMSO, then 1:2 serial dilutions performed using HDAC assay buffer (50 mM Tris pH 7.5, 150 mM NaCl) to afford range of concentrations.
The assays were performed in black 96-well plates with a reaction volume of 50 μL per well. All determinations were performed in triplicate. […] After an incubation of 20 minutes at 37° C. and 150 rpm, deacetylation was stopped by the addition of 50 μL of a developing solution containing trypsin (50 mM Tris pH 7.5, 100 mM NaCl, 10 mg/mL trypsin). […] HDAC Activity was calculated by subtracting the average blank fluorescence from the well fluorescence. Graphpad Prism software was utilised to determine IC50 values.

[5] = molecular target: NuRD (Homo sapiens, UniProt Q13547); assay: HDAC inhibition assay, NuRD complex (Table 1); assay type: biochemical
[6] = molecular target: MiDAC (Homo sapiens, UniProt Q13547); assay: HDAC inhibition assay, MiDAC complex (Table 1); assay type: biochemical
[7] = molecular target: T3, HDAC3 (Homo sapiens, UniProt O15379); assay: HDAC3 degradation in HCT116 cells, quantitative western blot; assay type: cell-based; details: HCT-116, 24 h; HCT116, screened at 0.1, 1 and 10 μM; maximum degradation irrespective of concentration; read-out: HDAC 3 degrader (% Degradation)
T3 construct: endogenous in cells; host or cells: HCT116
Description: as §3, §1
as §2, with “PageRuler™” for “Western blots were run on NuPAGE™ 4-12% Bis-Tris gels with 20-30 μg of protein or 10 μL of acid-extracted histone loaded per lane, using NuPAGE™ LDS Sample Buffer (4×). PageRuler™”

[8] = HCT116, side by side with PROTAC 4, FIG. 4C

CoREST, sequence (Q13547 whole entry, other chains not shown): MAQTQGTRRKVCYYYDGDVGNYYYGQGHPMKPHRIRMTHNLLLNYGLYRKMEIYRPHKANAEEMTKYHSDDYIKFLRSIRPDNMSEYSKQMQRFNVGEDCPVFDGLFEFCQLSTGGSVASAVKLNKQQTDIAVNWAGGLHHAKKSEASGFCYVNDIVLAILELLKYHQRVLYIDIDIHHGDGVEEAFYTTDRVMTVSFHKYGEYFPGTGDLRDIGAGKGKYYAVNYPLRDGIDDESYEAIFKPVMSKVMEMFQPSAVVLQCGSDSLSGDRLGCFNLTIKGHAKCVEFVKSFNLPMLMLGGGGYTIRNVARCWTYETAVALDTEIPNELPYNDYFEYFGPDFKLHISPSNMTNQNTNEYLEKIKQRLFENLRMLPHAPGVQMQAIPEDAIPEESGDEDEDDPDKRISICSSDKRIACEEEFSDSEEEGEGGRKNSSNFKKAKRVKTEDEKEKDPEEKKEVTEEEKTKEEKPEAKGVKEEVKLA
CoREST, sequence (Q9UKL0 86-485 partner limits assumed, other chains not shown): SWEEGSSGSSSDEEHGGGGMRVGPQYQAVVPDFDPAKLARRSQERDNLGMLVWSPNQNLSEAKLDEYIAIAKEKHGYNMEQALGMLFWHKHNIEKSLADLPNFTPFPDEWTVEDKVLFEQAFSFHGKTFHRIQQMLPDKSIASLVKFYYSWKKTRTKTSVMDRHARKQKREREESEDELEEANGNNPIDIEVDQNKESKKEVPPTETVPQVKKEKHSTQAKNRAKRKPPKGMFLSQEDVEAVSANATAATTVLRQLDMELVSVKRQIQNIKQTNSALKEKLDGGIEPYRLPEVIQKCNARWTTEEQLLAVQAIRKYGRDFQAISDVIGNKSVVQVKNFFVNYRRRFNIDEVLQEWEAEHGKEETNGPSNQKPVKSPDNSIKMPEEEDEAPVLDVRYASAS
T1 sequence (Q13547 whole entry): as the sequence (Q13547 whole entry, other chains not shown) above
NuRD, sequence (Q13547 whole entry): as the sequence (Q13547 whole entry, other chains not shown) above
NuRD, sequence (Q13330 162-546 partner limits assumed): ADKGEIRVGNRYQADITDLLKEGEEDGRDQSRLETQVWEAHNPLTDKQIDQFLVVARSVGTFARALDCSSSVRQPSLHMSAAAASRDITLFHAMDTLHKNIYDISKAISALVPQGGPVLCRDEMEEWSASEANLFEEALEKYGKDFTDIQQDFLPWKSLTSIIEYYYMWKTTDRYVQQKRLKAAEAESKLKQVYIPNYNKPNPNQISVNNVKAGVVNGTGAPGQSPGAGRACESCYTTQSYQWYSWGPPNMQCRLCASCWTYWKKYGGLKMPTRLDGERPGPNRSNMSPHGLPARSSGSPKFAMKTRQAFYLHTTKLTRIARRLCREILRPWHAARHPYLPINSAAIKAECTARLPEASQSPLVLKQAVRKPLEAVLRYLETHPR
NuRD, sequence (Q09028 whole entry partner): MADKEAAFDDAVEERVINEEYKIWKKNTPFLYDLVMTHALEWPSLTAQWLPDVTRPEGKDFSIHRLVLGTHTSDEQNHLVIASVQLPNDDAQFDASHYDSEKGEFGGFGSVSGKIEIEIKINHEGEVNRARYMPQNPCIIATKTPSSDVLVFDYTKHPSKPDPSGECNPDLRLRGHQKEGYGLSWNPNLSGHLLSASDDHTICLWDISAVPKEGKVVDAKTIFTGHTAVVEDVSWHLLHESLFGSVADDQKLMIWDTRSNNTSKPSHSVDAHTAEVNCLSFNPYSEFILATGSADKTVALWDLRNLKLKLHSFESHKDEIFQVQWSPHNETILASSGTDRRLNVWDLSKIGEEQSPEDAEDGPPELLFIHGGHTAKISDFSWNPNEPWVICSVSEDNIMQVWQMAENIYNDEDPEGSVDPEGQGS
T3 sequence (O15379 whole entry): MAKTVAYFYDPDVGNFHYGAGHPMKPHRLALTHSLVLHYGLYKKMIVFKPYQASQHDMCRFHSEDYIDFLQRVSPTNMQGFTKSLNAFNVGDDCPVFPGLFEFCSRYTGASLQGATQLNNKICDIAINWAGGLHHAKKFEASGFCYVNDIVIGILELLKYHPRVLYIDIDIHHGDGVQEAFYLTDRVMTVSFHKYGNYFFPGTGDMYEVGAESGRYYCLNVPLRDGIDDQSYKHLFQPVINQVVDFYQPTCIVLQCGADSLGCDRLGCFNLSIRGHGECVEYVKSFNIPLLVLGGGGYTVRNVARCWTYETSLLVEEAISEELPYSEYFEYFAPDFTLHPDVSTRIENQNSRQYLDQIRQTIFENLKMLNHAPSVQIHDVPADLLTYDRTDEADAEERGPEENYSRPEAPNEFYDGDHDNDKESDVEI
T2 sequence (Q92769 whole entry): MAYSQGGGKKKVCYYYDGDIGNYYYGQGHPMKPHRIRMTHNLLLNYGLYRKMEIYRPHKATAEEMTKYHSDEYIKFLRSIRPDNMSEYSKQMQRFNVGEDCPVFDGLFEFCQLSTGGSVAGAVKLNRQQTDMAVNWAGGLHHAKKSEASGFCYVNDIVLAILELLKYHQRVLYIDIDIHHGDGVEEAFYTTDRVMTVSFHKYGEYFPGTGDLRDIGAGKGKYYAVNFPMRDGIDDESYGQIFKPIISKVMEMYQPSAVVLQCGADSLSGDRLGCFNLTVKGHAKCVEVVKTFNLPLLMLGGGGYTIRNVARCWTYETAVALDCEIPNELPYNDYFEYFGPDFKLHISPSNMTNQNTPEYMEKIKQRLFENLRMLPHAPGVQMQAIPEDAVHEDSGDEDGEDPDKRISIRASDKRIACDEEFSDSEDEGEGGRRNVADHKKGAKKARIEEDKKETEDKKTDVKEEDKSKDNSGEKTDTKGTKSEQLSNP
MiDAC, sequence (Q13547 whole entry): as the sequence (Q13547 whole entry, other chains not shown) above
MiDAC, sequence (Q6PJG2 628-887 partner limits assumed): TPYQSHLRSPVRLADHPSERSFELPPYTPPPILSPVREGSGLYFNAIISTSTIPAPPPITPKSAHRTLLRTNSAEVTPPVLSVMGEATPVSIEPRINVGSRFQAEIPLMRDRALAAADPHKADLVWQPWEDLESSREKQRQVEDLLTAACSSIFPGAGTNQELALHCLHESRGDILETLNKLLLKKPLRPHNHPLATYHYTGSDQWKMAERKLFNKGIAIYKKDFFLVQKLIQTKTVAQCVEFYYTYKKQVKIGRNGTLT
MiDAC, sequence (Q9H147 whole entry partner): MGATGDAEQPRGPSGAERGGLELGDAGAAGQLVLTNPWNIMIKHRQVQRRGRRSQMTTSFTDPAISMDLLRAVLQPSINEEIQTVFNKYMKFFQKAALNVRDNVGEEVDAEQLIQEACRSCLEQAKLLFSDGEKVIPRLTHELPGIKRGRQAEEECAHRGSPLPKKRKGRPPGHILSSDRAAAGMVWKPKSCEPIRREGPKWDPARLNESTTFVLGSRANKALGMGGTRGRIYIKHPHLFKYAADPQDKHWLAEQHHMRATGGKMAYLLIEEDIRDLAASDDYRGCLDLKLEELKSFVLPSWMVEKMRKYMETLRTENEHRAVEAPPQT

Dmax [2] [%]	Dmax [3] [%]	Dmax [7] [%]	Structure (SMILES)	other results
–	–	–	CC(=O)Nc1ccc(C(=O)Nc2ccccc2N)cc1 [CI-994, 4-acetamido-N-(2-aminophenyl)benzamide, reference compound]	H3K56 acetylation level [1]: increased
–	–	–	Cc1ncsc1-c1ccc(CNC(=O)[C@@H]2C[C@H](O)CN2C(=O)[C@@H](NC(=O)CCCCCCCCCCC(=O)Nc2ccc(C(=O)Nc3ccccc3N)cc2)C(C)(C)C)cc1 [NC-PROTAC4, N1-(4-((2-aminophenyl)carbamoyl)phenyl)-N12-((S)-1-((2S,4S)-4-hydroxy-2-((4-(4-methylthiazol-5-yl)benzyl)carbamoyl)pyrrolidin-1-yl)-3,3-dimethyl-1-oxobutan-2-yl)dodecanediamide]	HDAC1 degradation [2, 8]: No degradation; HDAC2 degradation [3, 8]: No degradation
–	–	–	Nc1ccccc1NC(=O)c1ccc(NC(=O)CCCCCCCCCCCNC(=O)COc2cccc3c2C(=O)N(C2CCC(=O)NC2=O)C3=O)cc1 (centres unmarked) [PROTAC2, N-(2-aminophenyl)-4-(12-(2-((2-(2,6-dioxopiperidin-3-yl)-1,3-dioxoisoindolin-4-yl)oxy)acetamido)dodecanamido)benzamide]	H3K56 acetylation level [1]: increase in acetylation to similar levels
60	–	–	Cc1ncsc1-c1ccc(CNC(=O)[C@@H]2C[C@@H](O)CN2C(=O)[C@@H](NC(=O)CCCCCCCC(=O)Nc2ccc(C(=O)Nc3ccccc3N)cc2)C(C)(C)C)cc1 [PROTAC6, N1-(4-((2-aminophenyl)carbamoyl)phenyl)-N9-((S)-1-((2S,4R)-4-hydroxy-2-((4-(4-methylthiazol-5-yl)benzyl)carbamoyl)pyrrolidin-1-yl)-3,3-dimethyl-1-oxobutan-2-yl)nonanediamide]	IC50 [4]: 0.244 µM; IC50 [5]: 0.338 µM; IC50 [6]: 1.69 µM; HDAC 2 Degrader (% Degradation) [3]: partial
42	46	32	Cc1ncsc1-c1ccc(CNC(=O)[C@@H]2C[C@@H](O)CN2C(=O)[C@@H](NC(=O)COCCCCCCOCC(=O)Nc2ccc(C(=O)Nc3ccccc3N)cc2)C(C)(C)C)cc1 [PROTAC12, (2S,4R)-1-((S)-2-(2-((6-(2-((4-((2-aminophenyl)carbamoyl)phenyl)amino)-2-oxoethoxy)hexyl)oxy)acetamido)-3,3-dimethylbutanoyl)-4-hydroxy-N-(4-(4-methylthiazol-5-yl)benzyl)pyrrolidine-2-carboxamide]	IC50 [4]: 7.17 µM; IC50 [5]: 8.13 µM; IC50 [6]: 5.15 µM
67	58	67	Cc1ncsc1-c1ccc(CNC(=O)[C@@H]2C[C@@H](O)CN2C(=O)[C@@H](NC(=O)COCCCCCCCCCOCC(=O)Nc2ccc(C(=O)Nc3ccccc3N)cc2)C(C)(C)C)cc1 [PROTAC16, (2S,4R)-1-((S)-2-(2-((9-(2-((4-((2-aminophenyl)carbamoyl)phenyl)amino)-2-oxoethoxy)nonyl)oxy)acetamido)-3,3-dimethylbutanoyl)-4-hydroxy-N-(4-(4-methylthiazol-5-yl)benzyl)pyrrolidine-2-carboxamide]	IC50 [4]: 4.13 µM; IC50 [5]: 11.8 µM
32	–	32	Cc1ncsc1-c1ccc(CNC(=O)[C@@H]2C[C@@H](O)CN2C(=O)[C@@H](NC(=O)COCCOCCOCC(=O)Nc2ccc(C(=O)Nc3cc(-c4cccs4)ccc3N)cc2)C(C)(C)C)cc1 [PROTAC22, (2S,4R)-1-((S)-14-((4-((2-amino-5-(thiophen-2-yl)phenyl)carbamoyl)phenyl)amino)-2-(tert-butyl)-4,14-dioxo-6,9,12-trioxa-3-azatetradecanoyl)-4-hydroxy-N-(4-(4-methylthiazol-5-yl)benzyl)pyrrolidine-2-carboxamide]	HDAC 2 Degrader (% Degradation) [3]: No
47	44	30	Cc1ncsc1-c1ccc(CNC(=O)[C@@H]2C[C@@H](O)CN2C(=O)[C@@H](NC(=O)CCCCCCCCCCCCC(=O)Nc2ccc(C(=O)Nc3ccccc3N)cc2)C(C)(C)C)cc1 [PROTAC34, N1-(4-((2-aminophenyl)carbamoyl)phenyl)-N14-((S)-1-((2S,4R)-4-hydroxy-2-((4-(4-methylthiazol-5-yl)benzyl)carbamoyl)pyrrolidin-1-yl)-3,3-dimethyl-1-oxobutan-2-yl)tetradecanediamide]	–
61	49	38	CC(=O)N[C@H](C(=O)N1C[C@H](O)C[C@H]1C(=O)NCc1ccc(-c2scnc2C)cc1OCCCCCCCCCCCC(=O)Nc1ccc(C(=O)Nc2ccccc2N)cc1)C(C)(C)C [PROTAC35, (2S,4R)-1-((S)-2-acetamido-3,3-dimethylbutanoyl)-N-(2-((12-((4-((2-aminophenyl)carbamoyl)phenyl)amino)-12-oxododecyl)oxy)-4-(4-methylthiazol-5-yl)benzyl)-4-hydroxypyrrolidine-2-carboxamide]	–
51	28	69	Cc1ncsc1-c1ccc(CNC(=O)[C@@H]2C[C@@H](O)CN2C(=O)[C@@H](NC(=O)C2(F)CC2)C(C)(C)C)c(OCCCCCCCCCCCC(=O)Nc2ccc(C(=O)Nc3ccccc3N)cc2)c1 [PROTAC36, (2S,4R)-N-(2-((12-((4-((2-aminophenyl)carbamoyl)phenyl)amino)-12-oxododecyl)oxy)-4-(4-methylthiazol-5-yl)benzyl)-1-((S)-2-(1-fluorocyclopropane-1-carboxamido)-3,3-dimethylbutanoyl)-4-hydroxypyrrolidine-2-carboxamide]	–
38	16	37	CN[C@@H](C)C(=O)N[C@H](C(=O)N1CCC[C@H]1c1nc(C(=O)c2cccc(OCCCCCCCCCCCC(=O)Nc3ccc(C(=O)Nc4ccccc4N)cc3)c2)cs1)C1CCCCC1 [PROTAC37, N-(2-aminophenyl)-4-(12-(3-(2-((S)-1-((S)-2-cyclohexyl-2-((S)-2-(methylamino)propanamido)acetyl)pyrrolidin-2-yl)thiazole-4-carbonyl)phenoxy)dodecanamido)benzamide]	–

Structure (SMILES)	Dmax [2] [%]	Dmax [3] [%]	Dmax [7] [%]	other results
CN[C@@H](C)C(=O)N[C@H](C(=O)N1C[C@@H](NC(=O)CCCCCCCCCCC(=O)Nc2ccc(C(=O)Nc3ccccc3N)cc2)C[C@H]1C(=O)N[C@@H]1CCCc2ccccc21)C1CCCCC1 [PROTAC26, N^1-(4-((2-aminophenyl)carbamoyl)phenyl)-N^12-((3S,5S)-1-((S)-2-cyclohexyl-2-((S)-2-(methylamino)propanamido)acetyl)-5-(((R)-1,2,3,4-tetrahydronaphthalen-1-yl)carbamoyl)pyrrolidin-3-yl) dodecanediamide]	88	58	88	–
Cc1ncsc1-c1ccc(CNC(=O)[C@@H]2C[C@@H](O)CN2C(=O)[C@@H](NC(=O)CCCCCCCn2cc(COC(=O)NCc3ccc(C(=O)Nc4ccccc4N)cc3)nn2)C(C)(C)C)cc1 [PROTAC29, (1-(8-(((S)-1-((2S,4R)-4-hydroxy-2-((4-(4-methylthiazol-5-yl)benzyl)carbamoyl)pyrrolidin-1-yl)-3,3-dimethyl-1-oxobutan-2-yl)amino)-8-oxooctyl)-1H-1,2,3-triazol-4-yl)methyl(4-((2-aminophenyl)carbamoyl)benzyl)carbamate]	39	23	64	–
